Laboratory results published in publication PMC3085955 (Journal of medicinal chemistry, 2011).

What was measured:
T. gondii YFP = experiment: T. gondii replication assay in two successive infection cycles; assay type: cell-based, Toxoplasma gondii; settings: exposure to less than 1 μM in the first cycle
T. gondii RHΔhxgprt = assay type: cell-based, Toxoplasma gondii; settings: for apicoplast replication: 1st infection cycle, T. gondii RHΔhxgprt
cultured mammalian cells = settings: cited from earlier work

Molecule	reduction in parasite titers by the end of the second infection cycle (T. gondii YFP)	apicoplast replication (T. gondii RHΔhxgprt)	concentration showing toxicity against cultured mammalian cells (cultured mammalian cells)	ratio of plastid to nuclear DNA (T. gondii RHΔhxgprt; either infection cycle)
CC[C@H]1OC(=O)[C@H](C)[C@@H](O[C@H]2C[C@@](C)(OC)[C@@H](O)[C@H](C)O2)[C@H](C)[C@@H](O[C@@H]2O[C@H](C)C[C@H](N(C)C)[C@H]2O)[C@](C)(O)C[C@@H](C)CN(C)[C@H](C)[C@@H](O)[C@]1(C)O [Compound 3, Azithromycin]	> 2 fold	significantly impaired	~100 µM	–
CC[C@H]1OC(=O)[C@H](C)[C@@H](O[C@H]2C[C@@](C)(OC)[C@@H](O)[C@H](C)O2)[C@H](C)[C@@H](O[C@@H]2O[C@H](C)C[C@H](N(C)C)[C@H]2O)[C@](C)(O)C[C@@H](C)CN(Cc2ccccc2)[C@H](C)[C@@H](O)[C@]1(C)O [Compound 11, N-benzyl-azithromycin]	–	significantly impaired	–	–
CC[C@H]1OC(=O)[C@H](C)[C@@H](O[C@H]2C[C@@](C)(OC)[C@@H](O)[C@H](C)O2)[C@H](C)[C@@H](O[C@@H]2O[C@H](C)C[C@H](N(C)C)[C@H]2O)[C@](C)(O)C[C@@H](C)CN(CCCc2ccccc2)[C@H](C)[C@@H](O)[C@]1(C)O [Compound 30, N-phenylpropyl-azithromycin]	–	significantly impaired	–	–
CCc1nc(N)nc(N)c1-c1ccc(Cl)cc1 [Pyrimethamine]	–	–	–	did not affect
Spiramycin	–	significantly impaired	–	–
